In US6958233B2, “Process for the preparation of pharmaceutically acceptable salts of (R,S)-S-adenosyl-L-methionine” (Chementecno S.r.l., priority 2000, dated 2005):

What was measured:
[1] = HPLC analysis of the (S)-(+)-SAMe / (R)-(+)-SAMe diastereoisomer content (stability in time); format: physicochemical; details: after four months from the date of production
Method: 3 samples of SAMIR® [(R,S)-SAMe], produced by Knoll Farmaceutici S.p.A., were analyzed by HPLC. The values measured for each sample are as follows:
The products obtained according to the process of the invention in EXAMPLES 1-3, samples 4-6 respectively, were analyzed, similarly to what has been described in example 4, after four months from the date of their production.
The measured values for each sample were as follows: […]

[2] = test system: enzymatic transmethylation; details: De La Haba et al., J.A.C.S. 1959; cited from earlier work
[3] = Wu et al., Biochemistry 1983; cited from earlier work

Row | Compound | percentage of (R)-(+)-SAMe [1] [%] | percentage of (S)-(+)-SAMe [1] [%] | percentage of (R)-(+)-SAMe ([1]; listed as sample N. 4) [%] | enzymatic activity for the transmethylation [2] | formation of the inactive diastereoisomer (R)-(+)-SAMe by spontaneous racemisation [3]
1 | C[S+](CC[C@H](N)C(=O)[O-])C[C@H]1O[C@@H](n2cnc3c(N)ncnc32)[C@H](O)[C@@H]1O.Cc1ccc(S(=O)(=O)O)cc1.O=S(=O)(O)O.O=S(=O)(O)O (single isomer, unassigned) [SAMPLE 4] | 1 | 99 | 1 | – | –
2 | C[S+](CC[C@H](N)C(=O)[O-])C[C@H]1O[C@@H](n2cnc3c(N)ncnc32)[C@H](O)[C@@H]1O.Cc1ccc(S(=O)(=O)O)cc1.O=S(=O)(O)O.O=S(=O)(O)O (single isomer, unassigned) [SAMPLE 5, (SS, RS)-SAMe disulphate paratoluensulphonate] | 2 | 98 | – | – | –
3 | C[S+](CC[C@H](N)C(=O)[O-])C[C@H]1O[C@@H](n2cnc3c(N)ncnc32)[C@H](O)[C@@H]1O.Cc1ccc(S(=O)(=O)O)cc1.O=S(=O)(O)O.O=S(=O)(O)O (single isomer, unassigned) [SAMPLE 6] | 2 | 98 | – | – | –
4 | C[S@@+](CC[C@H](N)C(=O)[O-])C[C@H]1O[C@@H](n2cnc3c(N)ncnc32)C(O)C1O (stereo in doubt) [(R)-(+)-SAMe, (R)-(+)-S-adenosyl-L-methionine] | – | – | – | inactive | –
5 | C[S@@+](CC[C@H](N)C(=O)[O-])C[C@H]1O[C@@H](n2cnc3c(N)ncnc32)C(O)C1O (stereo in doubt) [(S)-(+)-SAMe, (S)-(+)-S-adenosyl-L-methionine] | – | – | – | enzymatically active | about 20%
